The values that follow come from US8795707B2, “Compliant composites for application of drug-eluting coatings to tissue surfaces” (Trustees of Boston University, priority 2008, dated 2014).

The nature of series [1]: Release of 10-hydroxycamptothecin from polymer-collagen composites. It counts as physicochemical. To be noted: PBS at 37° C. Here is the method: Using the procedures from Example 2, a composite was constructed from a collagen-based scaffold with a poly(caprolactone) barrier layer and two 10-hydroxycaptothecin-loaded (2% w/w) poly(glycerol monostearate) layers. The composites were submerged in 0.150 mL of PBS at 37° C. At specific time points, an aliquot of release media was removed and the concentration of HCPT was measured by fluorescence spectroscopy (λEx=382 nm and λEm=550 nm, Photon Technology International QM-4/2005 spectrofluorimeter). A calibration curve was constructed from nine samples of known HCPT concentrations with linearity observed from 10 nM to 5 μM (R^2=0.999) from which the drug concentration of each aliquot was determined. After the completion of release, the HCPT remaining in each film was quantified. Films were dissolved CH2Cl2 to release encapsulated drug, the solvent evaporated, and PBS (150 mL) was added under rigorous stirring. The fluorescence spectrum was recorded and remaining drug measured.

The test system of series [2] is 4T1 metastatic mammary mouse tumor cells. To be noted: implants co-implanted with 4T1 cells; cited from earlier work.
The subject of the next series is tumor. To be noted: pouch sutured subcutaneously, loaded three days after tumor inoculation; 30 day observation period; cited from earlier work.

`CC[C@@]1(O)C(=O)OCc2c1cc1n(c2=O)Cc2cc3cc(O)ccc3nc2-1` [10-hydroxycamptothecin]: the “HCPT released over the first 24 hours” value in series [1] (collagen scaffold, poly(caprolactone) barrier, two 2% w/w HCPT layers) was “about 10%”. Besides, in series [1] (same composite), the “HCPT release rate after the first five weeks” value is given as 0.5 % release per day; the “HCPT release rate, first two weeks” value stood at 2 % loading per day; the “HCPT release rate, following three weeks” value is on record as “approximately 1 % per day”; the “duration of continued release detected” value is “at least 6 weeks”.

`CC(C)CCCC(C)C1CCC2C3CC(C[131I])C4=C(CCC(O)C4)C3CCC12C` (stereo not shown) [^131I-norcholesterol]: the “mice in which tumor growth was prevented” value in series [2] is 69%.

In the case of `Nc1ccn([C@@H]2O[C@H](CO)[C@@H](O)C2(F)F)c(=O)n1` [gemcitabine], the “mice with no observable tumor mass” value in the series on tumor is recorded as “Four of six”.
